Measurements from patent US9131694B2, “Insecticidal pyridine compounds” (Dow AgroSciences, LLC, priority 2009, dated 2015).

Tests used:
[1] = system: Beet Armyworm (Spodoptera exigua); experiment: Insecticidal test for beet armyworm, treated lepidopteran diet; type: in vivo; conditions: 2000 ppm test solution, 50 μL per well on diet (50 g/cm^2 dose), second-instar larvae, observed 2 and 5 days after treatment
Procedure: Insecticidal Test for Beet Armyworm (Spodoptera exigua). To prepare test solution, the test compound was formulated at 2000 ppm solution in 2 mL of 9 acetone: 1 tap water. 50 μL of the test solution ([…] dose for each well) was pipetted upon the surface of 1 mL of lepidopteran diet (Southland Multi-Species Lepidopteran Diet) contained in each of eight wells per insect species (one well=1 replication). A second-instar beet armyworm was placed upon the treated diet in each well (one insect per well) once the solvent had air-dried. Trays containing the treated diet and larvae were covered and then held in a growth chamber at 25° C., 50-55% RH, and 16 hr light:8 hr dark for 5 days. Observation were conducted 2 and 5 days after treatment and infestation to score the number of dead insects per 8-well treatment. The results of this test are set forth in the column labelled “Beet Armyworm” in Table 1 below, in which letter designations represent ranges of percent control as set forth above.

[2] = system: Green Peach Aphid (Myzus persicae); experiment: Insecticidal test for green peach aphid in foliar spray assay on cabbage seedlings; type: in vivo; conditions: 200 ppm foliar spray on infested cabbage seedlings, graded after three days
Procedure: Insecticidal Test for Green Peach Aphid (Myzus persicae) in Foliar Spray Assay Cabbage seedlings grown in 3-inch pots, with 2-3 small (3-5 cm) true leaves, were used as test substrate. The seedlings were infested with 20-50 green peach aphids (wingless adult and nymph) 1-2 days prior to chemical application. Four seedlings were used for each treatment. Selected compounds (2 mg), many of which are described above, were dissolved in 2 ml of acetone:methanol (1:1) solvent, forming stock solutions of 1000 ppm. The stock solutions were diluted 5× with 0.025% Tween 20 in H2O to obtain a solution at 200 ppm. A hand-held Devilbiss aspirator sprayer was used for spraying a solution to both sides of cabbage leaves until runoff. Reference plants (solvent check) were sprayed with the diluent only. Treated plants were held in a holding room for three days at approximately 23° C. and 40% relative humidity prior to grading. Evaluation was conducted by counting the number of live aphids per plant under a microscope. Insecticidal activity was measured by using Abbott's correction formula: Corrected % Control=100*(X−Y)/X • where • X=No. of live aphids on solvent check plants • Y=No. of live aphids on treated plants The results of this test are set forth in the column labelled “Green Peach Aphid” in Table 1 below, in which letter designations represent ranges of percent control as follows: • A=80-100% control • B=60-79% control • C=40-59% control • D=20-39% control • E=0-19% control

| Compound | Beet Armyworm percent control [1] | Green Peach Aphid percent control (Abbott corrected % control) [2] |
| --- | --- | --- |
| FC(F)(F)c1cc(N2CCCC2c2ccccn2)nc(Cl)c1Cl (stereo not drawn) [Compound 1, 6-[2-(2-Pyridyl)-1-pyrrolidinyl]-4-trifluoromethyl-2,3-dichloropyridine] | B (B=60-79% control) | A (A=80-100% control) |
| CC(C)C1COC(c2ccccn2)N1c1cc(C(F)(F)F)c(C#N)c(Cl)n1 (stereo not drawn) [Compound 12, 2-chloro-6-[4-isopropyl-2-(2-pyridyl)oxazolidin-3-yl]-4-(trifluoromethyl)pyridine-3-carbonitrile] | E (E=0-19% control) | D (D=20-39% control) |
| FC(F)(F)c1cc(N2CCCC2c2ccccn2)ncc1Cl (stereo not drawn) | D (D=20-39% control) | E (E=0-19% control) |
| FC(F)(F)c1cc(Cl)nc(N2CCCC2c2ccccn2)c1Cl (stereo not drawn) [Compound 2, 6-[2-(2-pyridyl)-1-pyrrolidinyl]-4-trifluoromethyl-2,5-dichloropyridine] | B (B=60-79% control) | C (C=40-59% control) |
| C[Si](C)(C)c1c(C(F)(F)F)cc(N2CCCC2c2ccccn2)nc1Cl (stereo not drawn) [Compound 10] | E (E=0-19% control) | E (E=0-19% control) |
| CC1COC(c2ccccn2)N1c1cc(C(F)(F)F)c(C#N)c(Cl)n1 (stereo not drawn) [Compound 16, 2-chloro-6-[4-methyl-2-(2-pyridyl)oxazolidin-3-yl]-4-(trifluoromethyl)pyridine-3-carbonitrile] | E (E=0-19% control) | E (E=0-19% control) |
| CCC1CN(c2cc(C(F)(F)F)c(C#N)c(Cl)n2)C(c2ccccn2)O1 (stereo not drawn) [Compound 19, 2-Chloro-6-[5-ethyl-2-(2-pyridyl)oxazolidin-3-yl]-4-(trifluoromethyl)pyridine-3-carbonitrile] | C (C=40-59% control) | C (C=40-59% control) |
| FC(F)(F)c1cc(N2CCCCC2c2ccccn2)nc(Cl)c1Cl (stereo not drawn) [Compound 6] | A (A=80-100% control) | D (D=20-39% control) |
| FC(F)(F)c1cc(N2CCCC2c2ccccn2)nc(Cl)c1Br (stereo not drawn) | E (E=0-19% control) | D (D=20-39% control) |
| FC(F)(F)c1c(Cl)cnc(N2CCCC2c2ccccn2)c1Cl (stereo not drawn) | B (B=60-79% control) | E (E=0-19% control) |
| N#Cc1c(C(F)(F)F)cc(N2C(c3ccccc3)COC2c2ccccn2)nc1Cl (stereo not drawn) [Compound 18, 2-chloro-6-[4-phenyl-2-(2-pyridyl)oxazolidin-3-yl]-4-(trifluoromethyl)pyridine-3-carbonitrile] | E (E=0-19% control) | E (E=0-19% control) |
| FC(F)(F)c1cc(-n2c(-c3ccccn3)nc3ccccc32)nc(Cl)c1Cl | D (D=20-39% control) | D (D=20-39% control) |
